Laboratory results as given in patent US20090156644A1, “Use of thiazole derivatives and analogues in the treatment of cancer” (priority 2005, published 2009).

How the values were obtained:
MDA-MB-231 cells = experiment: Test A cell proliferation assay (FFA/linolenic acid stimulated, S-phase by flow cytometry); assay type: cell-based, human; conditions: linolenic acid 100 μM, 24 hours; Compounds X and Y 10 μM, Compound Z 40 μM; FIGS. 1c, 2A-2C
Method: Dulbecco's modified Eagle's medium (D-MEM)+1000 mg/L Glucose+GlutaMAX™1+Pyruvate (Gibco #21885-025)
PEST (100 U/ml penicillin, 100 ug/ml streptomycin, Gibco 15140-122) CyStain PI absolute T Kit (Partec #05-5023) Linolenic acid 99%, L2376 from Sigma Aldrich Dimethyl sulfoxide (DMSO)
Cytomics™ FC500 Flow Cytometer with CXP software (Beckman Coulter) MDA-MB-231 cells
MDA-MB-231 cells were cultured in the propagation media D-MEM+1000 mg/L Glucose+GlutaMAX™1+Pyruvate supplemented with 10% V/V Foetal Bovine Serum and PEST (100 U/ml penicillin, 100 μg/mL streptomycin). Cells were seeded in 6 well plates to a density of 300 000 cells/well in propagation media. After 24 hours, media was replaced with serum free D-MEM media.
Linolenic acid was diluted in DMSO to a concentration of 100 mM and added to the culture media to a final concentration of 100 μM.
Compounds were as dissolved in DMSO to a concentrations of 10 mM (Compounds of Examples 95 and 6 (Compound X and Compound Y, respectively)) and 40 mM (Compound of Example 4 (Compound Z)) and added to the culture media to a final concentration of 10 μM (X and Y) and 40 μM (Z) respectively.
After 24 hours in serum free media DMEM, linolenic acid (to a final concentration of […]) and compounds to be screened for activity were added to a final concentration of 10 μM (Compounds X and Y) and 40 μM (Compound Z) respectively. Final DMSO concentration was kept at 0.2% in all wells. After 24 hours of stimulation, cells were harvested and propidium iodine stained using a CyStain PI absolute T Kit according to manufacturer's recommendations. Cells were subsequently analyzed using a Cytomics™ FC500 Flow Cytometer with CXP software (Beckman Coulter) for cell cycle distribution. Cells were incubated with or without linolenic acid (LA) and the Compounds X, Y and Z for 24 hours at indicated concentrations. Cells in S-phase from untreated sample were set to 100% in each experiment.

[1] = tested on: MDA-MB-231 human breast cancer cells; experiment: Test B in vivo mouse model, tumor histology; set-up: species or system Athymic BALB/cA nude mice; conditions: 1 mg/kg intraperitoneal once daily for 9 days; for cell density in the interior of the tumor section / cells displaying macrophage/monocyte morphology in the interior of the tumor section: hematoxylin stained cryosections, versus vehicle
Method: week old Athymic BALB/cA nude mice were delivered from Taconic (Denmark) and kept under barrier conditions for 1 week acclimatisation. At 6 weeks, 17 mice were injected subcutaneously on the flank with 1.8×10^6 MDA-MB-231 human breast cancer cells (LGC Promochem-ATCC) in a 50/50 v/v solution of phosphate buffered saline (PBS) (Gibco 10010-015, Invitrogen) Matrigel HC (BD Biosciences).
2 mice were sacrificed and the tumors dissected and examined. 2 groups of 7 mice each were treated once daily by intraperitoneal injections of 1 mg/kg bodyweight of the compound of Example 6 (Compound Y) in PBS/1% v/v dimethylsufoxide or vehicle control respectively for 9 days. The mice were sacrificed by cervical dislocation and tumors were dissected.
The tumor tissue were fixated overnight in PBS (containing 4% w/v paraformaldehyde (Scharlau PA0095, Sharlau Chemie SA, Spain) at +4° C. The tumor tissue were then cryopreserved by 24 hour incubation in PBS containing 30% w/v sucrose (BDH #102745C (www.vwr.com) at +4° C. and embedded in Tissue-Tek embedding media (Sakura Finetek Europa BV, Netherlands). 10 μm cryosections were generated an stained with Mayers Hematoxylin (Dako) for 5 min and destained for 3×10 minutes in tap water. Slides were mounted using Dako faramount aqueous mounting medium and examined using a Nikon Eclipse TS 100 microscope documented using a Nikon coolpix 4500.
The tumors from mice treated with test compound and vehicle were analyzed for morphology by microscopic examination of hematoxylin stained cryosections.

| Compound | antagonism of free fatty acid stimulated cell proliferation (MDA-MB-231 cells) | cells displaying fibroblast morphology in the interior of the tumor section ([1]; hematoxylin stained cryosection, 20× magnification) | cell density in the interior of the tumor section [1] | cells displaying macrophage/monocyte morphology in the interior of the tumor section [1] | cell density in the interior of the tumor section ([1]; listed as test compound) | cells displaying macrophage/monocyte morphology in the interior of the tumor section ([1]; listed as test compound) |
| --- | --- | --- | --- | --- | --- | --- |
| Cc1ccc(N=C2NC(=O)C(Cc3cccc(C(F)(F)F)c3)S2)cc1 (centres unmarked) [Compound Z, 5-(3-(Trifluoromethyl)benzyl)-2-(p-tolylimino)thiazolidin-4-one] | able to antagonize free fatty acid stimulated cell proliferation | – | – | – | – | – |
| O=C1NC(=Nc2ccc(Cl)cc2)SC1Cc1cccc(C(F)(F)F)c1 (centres unmarked) [Compound Y, 5-(3-(Trifluoromethyl)benzyl)-2-(4-chlorophenylimino)thiazolidin-4-one] | able to antagonize free fatty acid stimulated cell proliferation | lack of cells displaying fibroblast morphology | low cell density | accumulation of cells displaying morphology indicative of macrophage/monocyte | markedly reduced | a frequent finding |
| O=C1NC(=Nc2ccccn2)SC1Cc1ccc(F)cc1 (centres unmarked) [Compound X, 5-(4-Fluorobenzyl)-2-(pyridin-2-ylimino)thiazolidin-4-one] | able to antagonize free fatty acid stimulated cell proliferation | – | – | – | – | – |
